# Experimental data reported in patent US20200182861A1, “METHOD FOR DIFFERENTIATION OF PLURIPOTENT STEM CELLS INTO VASCULAR BED CELLS” (Hoffmann-La Roche Inc., priority 2011, published 2020).
# B1: Wnt3a: Wnt3a added to the priming medium (protein, UniProt P56704 19-352, looked up)
# Protein Wnt-3a: SYPIWWSLAVGPQYSSLGSQPILCASIPGLVPKQLRFCRNYVEIMPSVAEGIKIGIQECQHQFRGRRWNCTTVHDSLAIFGPVLDKATRESAFVHAIASAGVAFAVTRSCAEGTAAICGCSSRHQGSPGKGWKWGGCSEDIEFGGMVSREFADARENRPDARSAMNRHNNEAGRQAIASHMHLKCKCHGLSGSCEVKTCWWSQPDFRAIGDFLKDKYDSASEMVVEKHRESRGWVETLRPRYTYFKVPTERDLVYYEASPNFCEPNPETGSFGTRDRTCNVSSHGIDGCDLLCCGRGHNARAERRREKCRCVFHWCCYVSCQECTRVYDVHTCK
# Tests used:
# human PSCs = experiment: Endothelial induction by GSK3 inhibitors, flow cytometric VE-Cadherin (CD144) expression on day 5; format: cell-based
# Procedure: (§1) The potential of the most widely used commercial GSK30 inhibitors and CP21R7 to activate β-catenin-mediated TCF/LEF transcription in human PA-1 reporter cells (DeAlmeida et al., 2007) was evaluated. […] Unmodified PA-1 cells are used to measure cellular viability via ATP levels and GLI-luciferase responsive reporter PA-1 cells as counter screen to monitor changes in general transcriptional activity. […] On the outcome of the β-Catenin reporter assay, three GSk3β inhibitors namely BIO, CHIR and CP were exploited for their potential to drive vascular lineage commitment of human PSCs. In addition to the listed inhibitors we include SB216763 (SB) due to its structure similarity to CP (see FIG. 18). Pluripotent stem cells were (i) plated as single-cells on mTeSR1 medium supplemented with Y-27632 a Rho-kinase inhibitor (Watanabe et al., 2007); (ii) incubated in priming medium (N2B27 medium supplemented with a GSK303 inhibitor) and (iii) incubated in induction medium (StemPro SFM 34 medium supplemented with Vascular Endothelial Growth Factor (VEGF; Sumi et al., 2008)) as outlined above under 1 (i) and (ii).
# The Following GSK3 Inhibitors were Used: CHIR99021 GSK3-Inhibitor: Catalogue Number: 361559 from Merck Millipore SB216763 GSK3-Inhibitor: Catalogue Number: 361566 from Merck Millipore BIO GSK3-Inhibitor: Catalogue Number: 3 361550 from Merck Millipore CP21R7: 3-(3-Amino-phenyl)-4-(1-methyl-1H-indol-3-yl)-pyrrole-2,5-dione (also referred to as “compound 21” herein; see e.g. L. Gong et al; Bioorganic & Medicinal Chemistry Letters 20 (2010), 1693-1696).
# Proliferation into vascular bed cells was detected on Day 5. Vascular identity is confirmed by the expression of vascular endothelial-cadherin (VE-Cadherin). The capability to induce vascular bed cells was determined by VE-Cadherin (CD144) expression on day 5 (FIG. 19). […] Remarkably, up to 35% of cells expressed CD144 at an optimal concentration of 1 μM from day five on. […] CHIR, which has a divergent chemical structure than CP induced CD144 expression also in a parabolic curve reaching an optimum at 6 μM. […] Although, SB and CP share the same chemical backbone, divergent moieties may influence the chemical properties, e.g. cellular permeability or solubility. In carrier treated cells no VE-CADHERIN expression was detected (FIG. 19).
# hESCs = experiment: Direct comparison BIO versus CP21R7 to differentiate hESCs into CD144+ endothelial cells; format: cell-based, human
# Procedure: FIG. 6: Direct comparison BIO versus CP21R7 to differentiate hESCs into endothelial cells CD144+. hESCs have been differentiated in monolayer conditions in parallel using different concentrations at Day 1 (0 μM, 0.5 μM, 1 μM, 2 μM) for the BIO or for the COMPOUND 21 (CP21R7) as supplement to the carrier medium N2B27, followed at Day 4 with induction medium VEGF-A 50 ng/ml and Forskolin 5 μM for all the conditions.
# The method of Tatsumi et al employs the BIO inhibitor at different concentrations as supplement to the N2B27. Although Tatsumi et al. describes that the pluripotent stem cells were differentiated to endothelial cells with about 20% efficiency (determined by endothelial cells expressing the surface marker CD144), we were not able to reproduce such results.
# Unmodified PA-1 cells = experiment: Cellular viability via ATP levels in unmodified PA-1 cells; format: cell-based, human
# Procedure: as §1
# [1] = tested on: human embryonic stem cell; conditions: 5 μM 3 days, then VEGF 2 days; Tatsumi et al.; cited from earlier work
# [2] = tested on: β-catenin-mediated TCF/LEF transcription; experiment: TCF/LEF reporter assay in human PA-1 reporter cells; format: cell-based; conditions: for dose-response activation curve: dose-response assay
# Procedure: FIG. 19: Compound selection. TCF/LEF reporter assay in human PA-1 reporter cells (DeAlmeida et al., 2007). After the treatment of reporter cells with GSk3 inhibitors at indicated concentrations β-catenin-mediated TCF/LEF transcriptional activity was measured as luciferase activity. The Compound Cp21R7 induced highest luciferase activity at a concentration of 3 μM.
# as §1
# [3] = tested on: GLI-luciferase responsive reporter PA-1 cells; experiment: GLI-luciferase responsive reporter PA-1 cells counter screen (general transcriptional activity); format: cell-based, human
# Procedure: as §1
# PSCs [4] = experiment: Immunostainings of differentiation markers over time; format: cell-based, human
# Excerpt: Immunostainings of SOX17, OCT4, T-BRACHYURY, PECAM-1 and VE-CADHERIN support the transcriptome data (Quantification shown in FIG. 9). The protein expression of the pan-mesodermal marker T-BRACHYURY confirms an intermediate PS-like cell stage. […] The vast majority of cells reached a T-BRACHYURY peak expression on day three. On day four the expression diminished and disappeared, thereby mimicking its specific embryonic expression pattern (Tam and Loebel, 2007). Loss of pluripotency was monitored by the time-dependent decline of OCT4 expression. […] Induction of endothelial cell identity was determined by the co-expression of platelet-endothelial cell adhesion molecule-1 (PECAM1) and VE-CADHERIN. Endothelial marker expression was detected upon administration of VEGF on day 4 (FIG. 9). […] Our differentiation system enables high throughput derivation of endothelial cells within 5 days through a transient emergence of primitive streak cells.
# PSCs [5] = experiment: Genome-wide gene expression analysis during differentiation; format: cell-based, human
# pluripotent stem cells [6] = experiment: Flow cytometry of CD144+ endothelial cells after monolayer differentiation; format: cell-based, human
# Procedure: FIG. 3: Flow Cytometry analysis of the pluripotent stem cell-derived CD144+ endothelial cells. Endothelial cells differentiated in monolayer conditions (priming medium 2 μM CP21R7, induction medium VEGF-A 50 ng/ml and Forskolin 5 μM) were analyzed before and after MACS sorting for the CD144+ expression. Before MACS Sorting 32.5% CD144+ endothelial cells and after MACS sorting 96.5% CD144+ endothelial cells.
# (§2) Before the enzymatic dissociation of hPSC colonies using StemPro Accutase (Invitrogen) cells are preincubated for one hour with 10 μM ROCK-Inhibitor Y27632. 35.000 single hPSCs per cm^2 are plated onto growth factor reduced Matrigel (BD bioscience) coated cell culture plates in TeSR2 medium supplemented with 10 μM ROCK-Inhibitor. On day1 attachment medium is exchanged to N2B27 (Gibco) medium supplemented with (a) 2 μM Compound 21 (CP21R7) or (b) 1 μM Compound 21 (CP21R7) and 25 ng/ml BMP4 (R&D Systems). Cells are cultivated for additional 3 days without media change.
# (§3) On day 4 priming medium is replaced with StemPro-34 SFM medium (Invitrogen) supplemented with (a) 50 ng/ml VEGF and 5 μM Forskolin or (b) 200 ng/ml VEGF and 2 μM Forskolin. On day 5 induction medium is withdrawn and cells are used for MACS separation of CD144+ cells.
# [7] = tested on: Human Embryonic Stem cells; experiment: Quantification of CD144+ stem cell-derived endothelial cells by image based high content analysis
# Procedure: FIG. 2A: Quantification CD144+ Stem Cell-Derived Endothelial Cells by image based high content analysis (HCA). Human Embryonic Stem cells have been differentiated in monolayer conditions with different small molecules. Upper and middle panel: Day 1 priming medium with different compounds; Day 4 induction medium+VEGF-A 50 ng/ml. Carrier N2B27 alone (upper panel, left); Wnt3a 150 ng/ml added to the priming medium (upper panel, right); SB216763 6 μM added to the priming medium (middle panel, left), CHIR 9902 2 μM added to the priming medium (middle panel, right). Lower panels: Day 1 priming medium with 2 μM Compound 21 (CP21R7); Day 4 induction medium+VEGF-A 50 ng/ml (lower panel, left) and Day 4 induction medium+VEGF-A 50 ng/ml+Forskolin 5 μM (lower panel, right). DAPI (cell nuclei) CD144 (membrane staining).
# FIG. 2B: Quantification graph: Percent CD144+ positive cells.
# as §2, §3
# pluripotent stem cells [8] = experiment: VSMC induction, flow cytometric CD31/CD140b distribution; format: cell-based, human; conditions: induction medium replaced by RPMI medium with 0.5 μM IWR
# Excerpt: Cell types differed by morphology as well as by marker expression. Cobblestone-like cells with tight cell-cell contacts expressed the endothelial-specific marker VE-Cadherin. Flattened and spindle-like shaped cells stained positive for Smooth Muscle Actin (αSMA), indicating a vascular smooth muscle cell (VSMC) identity. In flow cytometric analysis cells separated into a major fraction of CD31^+/CD140^+ cells and minor fraction of CD31^−/CD140b^+ cells (FIG. 10).
# SC-derived ECs = experiment: Tube formation assay of SC-derived ECs on Matrigel matrix; format: cell-based, human; conditions: data not shown
# Procedure: In order to define the endothelial phenotype more profoundly, the angiogenic potential, the ability to uptake DiI-acetylated low-density lipoprotein (DiI-ac-LDL) was assessed and the dynamic modulation of the barrier function was monitored. For tube formation assays SC-derived ECs were seeded onto a Matrigel matrix.
molecule,measurement,setting,value
"O=C1Nc2cc(Br)ccc2/C1=C1/Nc2ccccc2/C1=N\O [BIO, (2′Z, 3′E)-6-bromoindirubin-3′-oxime]",toxicity on single cells,human PSCs; data not shown,toxic on single cells
same,maximum expression of the CD144,"hESCs; 0.5 μM at Day 1 in N2B27, induction medium VEGF-A 50 ng/ml and Forskolin 5 μM",5%
same,cytotoxicity,hESCs; already at concentrations of 1 μM,strong cytotoxicity
same,toxicity to the cells,"hESCs; the other concentrations (1 μM, 2 μM)",toxic to the cells
same,toxicity,"Unmodified PA-1 cells; concentration of 10 μM, data not shown",highly toxic
same,efficiency determined by endothelial cells expressing the surface marker CD144,[1],about 20%
same,dose-response activation curve,[2],steep activation curve
same,GLI-mediated luciferase activity,[3]; data not shown,three-fold increase
"Cn1cc(C2=C(c3cccc(N)c3)C(=O)NC2=O)c2ccccc21 [CP21R7, 3-(3-Amino-phenyl)-4-(1-methyl-1H-indol-3-yl)-pyrrole-2,5-dione]",optimal concentration for CD144 expression,"human PSCs; bell-shaped / parabolic curve, day 5",1 µM
same,cells expressed CD144,"human PSCs; optimal concentration of 1 μM, from day five on",up to 35%
same,CD144 expression,"hESCs; dose response 0.5 μM, 1 μM, 2 μM, induction VEGF-A 50 ng/ml and Forskolin 5 μM",up to 35%
same,cell proliferation,Unmodified PA-1 cells; at maximum luciferase activity,only a modest gain of cell proliferation
same,SOX17+ cells,"PSCs [4]; CP21 alone, day three",salt and pepper staining pattern of SOX17^+ cells
same,SOX17+ cells,PSCs [4]; combined application of CP and BMP4,prevented the appearance of endodermal SOX17^+ cells
same,T-BRACHYURY expression,PSCs [4]; treatment with CP and BMP4,induced T-BRACHYURY expression quickly after one day
same,maximum increased luciferase activity,[2]; at 3 μM,566 fold
same,concentration of highest luciferase activity,[2]; bell-shaped curve,3 µM
same,dose-response activation curve,[2],steep activation curve
same,general transcriptional activity,[3],minor increases of general transcriptional activity
same,"mesoderm markers MIXL1, T/BRACHYURY, FGF4 and EOMES",PSCs [5]; 24 hours upon combined CP and BMP4 treatment,Upregulation
same,"pluripotency markers NANOG, UIF1 and SOX2","PSCs [5]; 24 hours upon combined CP and BMP4 treatment, data not shown",downregulated
same,"CD144 expression, cells on day six","pluripotent stem cells [6]; priming 1 μM CP with 25 ng/ml BMP4, induction 200 ng/ml VEGF with 2 μM Forskolin",up to 85%
same,CD144+ endothelial cells before MACS sorting,"pluripotent stem cells [6]; priming medium 2 μM CP21R7, induction medium VEGF-A 50 ng/ml and Forskolin 5 μM",32.5%
same,CD144+ cells,"[7]; 2 μM added to the priming medium, day 4 induction medium + VEGF-A 50 ng/ml",40.2%
same,CD144+ cells,"[7]; 2 μM added to the priming medium, induction medium + VEGF-A 50 ng/ml + Forskolin 5 μM",54.6%
O=C(Nc1cccc2cccnc12)c1ccc(N2C(=O)[C@@H]3[C@H](C2=O)[C@@H]2C=C[C@H]3C2)cc1 [IWR],distribution of CD31+/CD140b− and CD31−/CD140b+ cells,pluripotent stem cells [8],inverted distribution
"Cn1cc(C2=C(c3ccc(Cl)cc3Cl)C(=O)NC2=O)c2ccccc21 [SB216763, 3-(2,4-Dichlorophenyl)-4-(1-methyl-1H-indol-3-yl)-1H-pyrrole-2,5-dione, reference compound]",CD144 expression,"human PSCs; day 5, flow cytometry",no CD144 expression was observed
same,TCF/LEF luciferase expression,[2]; concentration dependent administration,negligible
same,CD144+ cells,"[7]; 6 μM added to the priming medium, day 4 induction medium + VEGF-A 50 ng/ml",0.5%
C[S+]([O-])CCCCN=C=S (centres unmarked) [Sulforaphane],"tube formation, number of nodes, length of tubes",SC-derived ECs,perturbed tube formation and reduced the number of nodes as well as the length of tubes
VEGF,"upregulation of endothelial markers CD34, PECAM1, CDH5 and vWF","PSCs [5]; within the first 24 hours upon VEGF, data not shown",more than 100 fold
B1,CD144+ cells,"[7]; 150 ng/ml added to the priming medium, day 4 induction medium + VEGF-A 50 ng/ml",0.8%
